We go through eight compounds from patent US7348350B2, “Pyrazolyl biphenyl carboxamides and the use thereof for controlling undesirable microorganisms” (Bayer CropScience AG, priority 2000, dated 2008).

One data set deals with Alternaria solani. Description: Alternaria test (tomato)/protective. In kind it is in vivo. The following applies: protective, application rate 750 g/ha, evaluation 7 days after inoculation. The procedure: (§1) To produce a suitable preparation of active compound, 1 part by weight of active compound is mixed with the stated amounts of solvent and emulsifier, and the concentrate is diluted with water to the desired concentration.
To test for protective activity, young tomato plants are sprayed with the preparation of active compound at the stated application rate. 1 day after the treatment, the plants are inoculated with a spore suspension of Alternaria solani and then remain at 100% rel. humidity and 20° C. for 24 h. The plants then remain at 96% rel. atmospheric humidity and a temperature of 20° C.
Evaluation is carried out 7 days after the inoculation. 0% means an efficacy which corresponds to that of the control, whereas an efficacy of 100% means that no infection is observed.

A further data set has as its system Sphaerotheca fuiginea. Description: Sphaerotheca test (cucumber)/protective. The class given is in vivo. The following applies: Cucumis sativus, 240 h, protective, application rate 100 g/ha, evaluation 10 days after inoculation, read-out: % efficacy. The procedure:
as §1
To test for protective activity, young plants are sprayed with the preparation of active compound at the stated application rate. After the spray coating has dried on, the plants are inoculated with an aqueous spore suspension of Sphaerotheca fuiginea. The plants are then placed in a greenhouse at approximately 23° C. and a relative atmospheric humidity of approximately 70%.
(§2) Evaluation is carried out 10 days after the inoculation. 0% means an efficacy which corresponds to that of the control, whereas an efficacy of 100% means that no infection is observed.

In data set [1] the test system is Gloeophyllum trabeum, Coniophora puteana, Poria placenta, Lentinus tigrinus and Coriolus versicolor. Description: Inhibition test on giant colonies of Basidiomycetes. The class given is cell-based. The following applies: 6 ppm active compound in malt extract peptone agar, 26° C.; read-out: % efficacy (percent inhibition of hyphal growth). The protocol: Inhibition Test on Giant Colonies of Basidiomycetes Mycelium sections were removed from colonies of Gloeophyllum trabeum, Coniophora puteana, Poria placenta, Lentinus tigrinus and Coriolus versicolor and incubated on an agar medium containing malt extract peptone at 26° C. The inhibition of hyphal growth on active-compound-containing media was compared with the longitudinal growth on media without an addition of active compound and rated as percent inhibition.

For the next data set, the system named is Podosphaera leucotricha. Description: Podosphaera test (apple)/protective. In kind it is in vivo. The following applies: 240 h, protective, application rate 100 g/ha, evaluation 10 days after inoculation, read-out: % efficacy. The procedure: as §1
To test for protective activity, young plants are sprayed with the preparation of active compound at the stated application rate. After the spray coating has dried on, the plants are inoculated with an aqueous spore suspension of the apple mildew pathogen Podosphaera leucotricha. The plants are then placed in a greenhouse at approximately 23° C. and a relative atmospheric humidity of approximately 70%.
as §2

The test system of the next data set is Puccinia recondita. Put plainly: Puccinia test (wheat)/protective. In kind it is in vivo. Conditions: protective, application rate 250 g/ha, evaluation 10 days after inoculation. The procedure: as §1
To test for protective activity, young plants are sprayed with the preparation of active compound at the stated application rate. After the spray coating has dried on, the plants are sprayed with a conidia suspension of Puccinia recondita. The plants remain in an incubation cabin at 20° C. and 100% relative atmospheric humidity for 48 hours.
The plants are then placed in a greenhouse at a temperature of approximately 20° C. and a relative atmospheric humidity of 80% to promote the development of rust pustules.
as §2

The next data set relates to Venturia inaequalis. Description: Venturia test (apple)/protective. In kind it is in vivo. The following applies: 288 h, protective, application rate 100 g/ha, evaluation 12 days after inoculation, read-out: % efficacy. The protocol: To produce a suitable preparation of active compound, 1 part by weight of active compound is mixed with the stated amount of solvent and emulsifier, and the concentrate is diluted with water to the desired concentration.
To test for protective activity, young plants are sprayed with the preparation of active compound at the stated application rate. After the spray coating has dried on, the plants are inoculated with an aqueous conidia suspension of the apple scab pathogen Venturia inaequalis and then remain in an incubation cabin at approximately 20° C. and 100% relative atmospheric humidity for 1 day.
The plants are then placed in a greenhouse at approximately 21° C. and a relative atmospheric humidity of approximately 90%.
Evaluation is carried out 12 days after the inoculation. 0% means an efficacy which corresponds to that of the control, whereas an efficacy of 100% means that no infection is observed.

Data set [2] can be described thus: logP by HPLC on reversed-phase column (C 18), EEC Directive 79/831 Annex V.A8. In kind it is physicochemical. Conditions: reversed-phase HPLC column (C 18); acidic range, pH 2.3, 0.1% aqueous phosphoric acid and acetonitrile, 43° C. (marked a). The procedure:
The logP values given in the Preparation Examples and Tables above were determined in accordance with EEC Directive 79/831 Annex V.A8 by HPLC (High Performance Liquid Chromatography) on a reversed-phase column (C 18). Temperature: 43° C.
In the acidic range, the determination was carried out at pH 2.3 using the mobile phases 0.1% aqueous phosphoric acid and acetonitrile; linear gradient from 10% acetonitrile to 90% acetonitrile (marked ^a) in the Table).
In the neutral range, the determination was carried out at pH 7.5 using the mobile phases 0.01 molar aqueous phosphate buffer solution and acetonitrile; linear gradient from 10% acetonitrile to 90% acetonitrile (marked ^b) in the Table).

For `CO/N=C/c1ccc(-c2cc(F)cc(F)c2NC(=O)c2c(C)nn(C)c2F)cc1` [Example 2, N-{3,5-difluoro-4′-[(methoxyimino)methyl]-1,1′-biphenyl-2-yl}-5-fluoro-1,3-dimethyl-1H-pyrazole-4-carboxamide], the “% efficacy” value with Alternaria solani came out at 90%.
Consider `CO/N=C/c1ccc(-c2ccccc2NC(=O)c2c(C)nn(C)c2F)cc1` [Example 1, 5-fluoro-N-{4′-[(methoxyimino)methyl]-1,1′-biphenyl-2-yl}-1,3-dimethyl-1H-pyrazole-4-carboxamide], for which the pest or weed control at 100 g/ha with Sphaerotheca fuiginea, in the data set with Podosphaera leucotricha and with Venturia inaequalis was 100% throughout. In addition, the Emax at 6 ppm in data set [1] stood at 100%. In addition, the “% efficacy” value was found to be 95% in the data set with Alternaria solani and 100% in the data set on Puccinia recondita.
Regarding `CO/N=C(\C)c1ccc(-c2ccccc2NC(=O)c2c(C)nn(C)c2F)cc1` [Example 4, 5-fluoro-N-[4′-(N-methoxyethaneimidoyl)-1,1′-biphenyl-2-yl]-1,3-dimethyl-1H-pyrazole-4-carboxamide], the Emax at 6 ppm in data set [1] came out at 100%. Moreover, in the data set on Alternaria solani, the “% efficacy” value is reported as 90%.
For the compound `CO/N=C/c1cccc(-c2ccccc2NC(=O)c2c(C)nn(C)c2F)c1` [Example 5], the “% efficacy” value in the data set on Alternaria solani was found to be 90%.
In the case of `CO/N=C/c1ccc(-c2cccc(F)c2NC(=O)c2c(C)nn(C)c2F)cc1` [Example 9], the Emax at 6 ppm in data set [1] came to 100%. Further, the chromatographic logP in data set [2] amounted to 2.51. In the data set on Puccinia recondita, the “% efficacy” value is 100%.
As to `CO/N=C/c1ccc(-c2ccccc2NC(=O)c2c(C)nn(C)c2F)c(C)c1` [Example 26], the pest or weed control at 100 g/ha in the data set with Sphaerotheca fuiginea was determined as 95%; in the data set on Podosphaera leucotricha, 100%; in the data set with Venturia inaequalis, 100%. In data set [2], the chromatographic logP amounted to 3.4. Moreover, the “% efficacy” value with Puccinia recondita came to 100%.
`CO/N=C(\C)c1cccc(-c2ccccc2NC(=O)c2c(C)nn(C)c2F)c1` [Example 7]: the chromatographic logP in data set [2] is 3.2. The “% efficacy” value in the data set on Alternaria solani worked out at 100%.
As to `CO/N=C/c1ccc(-c2ccccc2NC(=O)c2c(C)nn(C)c2F)cc1F` [Example 3, 5-fluoro-N-{3′-fluoro-4′-[(methoxyimino)methyl]-1,1′-biphenyl-2-yl}-1,3-dimethyl-1H-pyrazole-4-carboxamide], the Emax at 6 ppm in data set [1] is 100%. Moreover, in the data set with Puccinia recondita, the “% efficacy” value is recorded as 100%.

For orientation: chromatographic logP means lipophilicity estimated from chromatographic retention. Read a high chromatographic logP as higher lipophilicity.
